Source: US12303474B2, “S-enantiomerically enriched compositions of beta blockers for treating amyotrophic lateral sclerosis” (priority 2013, dated 2025)
Read-outs that look alike come from different tables or passages of the source.

Key:
[1] = test system: G93A SOD1 B6SJL hybrid (G93A) model; settings: 10 mg/kg/d; for Heart / gastrocnemius: end of study;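 for HR survival (FIG. 14): dosing began after ALS onset in G93A SOD1 mice, with survival as the endpoint, defined humanely as the animal failing to regain upright posture within 30 s when placed sideways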;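 for HR survival (FIG. 16): dosing began after ALS onset in G93A SOD1 mice, with survival as the endpoint, defined humanely as the animal failing to regain upright posture within 30 s when placed sideways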
Protocol: (§1) Transgenic mice over-expressing a high copy number (25 copies) of mutated human SOD1 gene with a G93A point mutation, i.e., B6SJL-TgN [SOD1-G93A]1 Gur (G1H-G93A transgenic mice, JR2726; Hemizygote) (Gurney M E, et al., Science, 264, 1772-1775, 1994) (“G93A SOD1 B6SJL hybrid (G93A) model”), were used.
To study the effect of the test compounds on skeletal muscle atrophy, the skeletal muscle mass were determined at the end of the study.
The number of all mice in the population is indicated as “n” in at the bottom of FIGS. 21A-21C.
The number of all mice in the population is indicated as “n” in at the bottom of FIGS. 20D-20F.
The number of all mice in the population is indicated as “n” in at the bottom of FIGS. 21G-21I.

[2] = test system: G93A SOD1 B6SJL hybrid (G93A) model; test: Disease progression score (JAX SOP) in G93A SOD1 transgenic mice; settings: 10 mg/kg/day vs. placebo
Text: The disease progression score is based on the JAX SOP (Ludolph A C, Bendotti C, Blaugrund E, Hengerer B, Loffler J P, Martin J, Meininger V, Meyer T, Moussaoui S, Robberecht W, Scott S, Silani V, Van Den Berg L H (ENMC Group For The Establishment Of Guidelines For The Conduct Of Preclinical And Proof Of Concept Studies In ALS/MND Models). 2007, which is incorporated by reference).

[3] = test system: G93A SOD1 B6SJL hybrid (G93A) model; settings: 10 mg/kg/day vs. placebo;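 for HR survival (FIG. 14): dosing began after ALS onset in G93A SOD1 mice, with survival as the endpoint, defined humanely as the animal failing to regain upright posture within 30 s when placed sideways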;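 for HR survival (FIG. 16): dosing began after ALS onset in G93A SOD1 mice, with survival as the endpoint, defined humanely as the animal failing to regain upright posture within 30 s when placed sideways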
Text: To study the effect of S-oxprenolol on survival, survival was monitored over time.

[4] = test system: G93A SOD1 B6SJL hybrid (G93A) model; test: Body weight and body composition (lean mass, fat mass; NMR scans) in G93A SOD1 transgenic mice; assay type: in vivo; settings: 10 mg/kg/d; for Average Δ body weight / Average Δ fat mass / Average Δ lean mass: per day alive after disease onset
Text: as §1
[…] […] There were 16 mice in the S-oxprenolol group.
The primary endpoint was survival, humanely defined as the ability of the animal to right itself in 30 seconds after being laid on its side. Secondary endpoints were body weight, body composition, spontaneous activity and food intake. Body weight of the animals was assessed weekly until onset of disease. Additionally, body composition (fat mass and lean body mass) was assessed using NMR scans (EchoMRI-100, Echo Medical Systems, Houston, USA) every 4 days. After onset of disease, body weight and body composition were assessed every two days until the end of the study. All personal handling the animals was strictly blinded to the randomized treatment allocation.
To study the effect of S-oxprenolol on body weight, body weight was monitored over time.
To study the effect of the test compounds on lean body mass, lean mass was determined at the end of the study.
To study the effect of the test compounds on fat mass, the fat mass were determined at the end of the study.
To study the effect of S-oxprenolol on body weight, body weight was monitored over time. […] The number of all mice in the population is indicated as “n” in at the bottom of FIGS. 20A-20C.
To study the effect of the test compounds on lean body mass, lean mass was determined at the end of the study. […] The number of all mice in the population is indicated as “n” in at the bottom of FIGS. 20D-20F.
To study the effect of the test compounds on fat mass, the fat mass were determined at the end of the study. […] The number of all mice in the population is indicated as “n” in at the bottom of FIGS. 20G-20I.

CC(C)NCC(O)COc1cccc2ccccc12 (centres unmarked) [propanolol]
BAT (brown adipose tissue) ([1]; all mice): 45.1 ± 2.9 mg
EDL (extensor digitorum longus) ([1]; all mice): 7.11 ± 0.37 mg
soleus ([1]; all mice): 5.60 ± 0.28 mg
Heart ([1]; all mice): 104.0 ± 3.2 mg
gastrocnemius ([1]; all mice): 52.4 ± 3.3 mg
BAT (brown adipose tissue) ([1]; female mice): 41.2 ± 2.2 mg
EDL (extensor digitorum longus) ([1]; female mice): 6.21 ± 0.37 mg
soleus ([1]; female mice): 5.57 ± 0.43 mg
Heart ([1]; female mice): 93.8 ± 2.7 mg
gastrocnemius ([1]; female mice): 40.6 ± 3.3 mg
BAT (brown adipose tissue) ([1]; male mice): 48.7 ± 5.1 mg
EDL (extensor digitorum longus) ([1]; male mice): 7.94 ± 0.55 mg
soleus ([1]; male mice): 5.63 ± 0.38 mg
Heart ([1]; male mice): 113.5 ± 4.6 mg
gastrocnemius ([1]; male mice): 63.3 ± 3.6 mg
HR Progression from score 1 to score 2 (FIG. 17) [2]: 0.64
HR Progression from score 1 to score 3 (FIG. 19) [2]: 0.72
HR Progression from score 2 to score 3 (FIG. 18) [2]: 0.99
HR survival (FIG. 14) ([3]; all mice): 0.73
HR survival (FIG. 16) ([3]; female mice): 0.71
HR survival (FIG. 15) ([3]; male mice): 0.59
Δ body weight ([4]; all mice): -5.89 ± 0.42 g
Δ fat mass ([4]; all mice): -1.82 ± 0.25 g
Δ lean mass ([4]; all mice): -4.89 ± -0.26 g
Average Δ body weight ([4]; all mice): -127.6 ± 10.6 mg/day
Average Δ fat mass ([4]; all mice): -43.9 ± 5.5 mg/day
Δ body weight ([4]; female mice): -5.66 ± 0.66 g
Δ fat mass ([4]; female mice): -1.65 ± 0.44 g
Δ lean mass ([4]; female mice): -4.70 ± 0.37 g
Average Δ body weight ([4]; female mice): -111.3 ± 13.2 mg/day
Average Δ fat mass ([4]; female mice): -30.9 ± 8.3 mg/day
Average Δ lean mass ([4]; female mice): -91.2 ± 8.3 mg/day
Δ body weight ([4]; male mice): -6.11 ± 0.54 g
Δ fat mass ([4]; male mice): -1.99 ± 0.26 g
Δ lean mass ([4]; male mice): -5.06 ± 0.37 g
Average Δ body weight ([4]; male mice): -142.7 ± 15.9 mg/day
Average Δ fat mass ([4]; male mice): -51.9 ± 6.9 mg/day
Average Δ lean mass ([4]; male mice): -118.6 ± 10.6 mg/day
